Test results as given in ChEMBL document CHEMBL1156180, “Synthesis and bioluminescence-inducing properties of autoinducer (S)-4,5-dihydroxypentane-2,3-dione and its enantiomer” (Bioorg Med Chem Lett, 2010).
Active and inactive are the calls of the source. The calls are words filed in the database; no cut-off is given here.

Biological target: Autoinducer 2-binding periplasmic protein LuxP (Vibrio harveyi) (UniProt P54300)
Assay: Induction of Vibrio harveyi BB170 LuxP sensor protein-mediated quorum sensing activity at 0.5 to 5 ug/ml by reporter bioluminescence assay

Autoinducer 2-binding periplasmic protein LuxP (Vibrio harveyi), sequence (P54300 whole entry): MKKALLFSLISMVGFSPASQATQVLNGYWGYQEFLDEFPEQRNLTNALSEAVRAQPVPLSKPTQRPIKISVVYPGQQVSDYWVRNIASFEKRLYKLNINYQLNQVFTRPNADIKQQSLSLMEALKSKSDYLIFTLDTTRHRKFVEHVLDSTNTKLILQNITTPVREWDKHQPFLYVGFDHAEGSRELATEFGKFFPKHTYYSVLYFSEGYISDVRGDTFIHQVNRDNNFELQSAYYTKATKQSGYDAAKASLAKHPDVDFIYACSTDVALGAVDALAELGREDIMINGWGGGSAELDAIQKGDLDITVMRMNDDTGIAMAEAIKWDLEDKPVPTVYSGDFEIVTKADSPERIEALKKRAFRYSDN

| Compound | Activity |
| --- | --- |
| CC(=O)C(=O)[C@@H](O)CO | Active |
| CC(=O)C(=O)[C@H](O)CO | Active |
